Measured values as given in patent US10918648B2, “Estrogen receptor modulator combinations” (The Regents of the University of California, priority 2016, dated 2021).

Assays:
[1] = test system: A549 NSCLC cells; test: NSCLC cell proliferation in vitro (MTS assay); format: cell-based, human
[2] = test system: MCF-7 breast cancer cells; test: MCF-7 breast cancer cell proliferation (BrdU ELISA) in presence of estradiol-17β; format: cell-based, human; settings: Homo sapiens, MCF7; 72 hrs in the presence of 1 nM estradiol-17β, BrdU ELISA; read-out: IC50 for inhibition of cell proliferation, MCF-7
Protocol: In experiments to assess potential proliferative effects of novel estrogen receptor ligands, human breast cancer cells were grown in phenol red-free, estrogen-free media with 1% dextran-coated charcoal-treated (DCC)-fetal bovine serum (FBS) for 48 hrs (15,44), then treated with either 1 μM or 50 μM doses of estrogen receptor antagonists in the presence of 1 nM estradiol-17β. Cell counts and viability tests (Trypan blue) were done every 24 hr for 3 days. After 72 hr, proliferation was assessed using the BrdU Cell proliferation ELISA (Roche). Cell numbers were also assessed initially by cell counts to confirm ELISA data. Each antiestrogen was tested at least in three different experiments.
In order to assess the antitumor action of novel estrogen receptor antagonists, we cultured human MCF-7 breast cancer cells with known expression of ERα. Cells were grown in 1% DCC-FBS for 48 hr and then treated with vehicle control or either 1 μM or 50 μM concentrations of antiestrogens JD 101-160 or the pure antiestrogen fulvestrant (FAS), all in the presence of 1 nM estradiol-170. […] Shown in FIG. 2A are results from MCF-7 cells grown in 1% DCC-FBS for 48 hr and then treated with vehicle control, 1 nM estradiol-170 and either 1 μM or 50 μM concentrations of antiestrogens JD 101-160 or the known pure antiestrogen fulvestrant (FAS) in the presence of 1 nM estradiol-170. Cell proliferation is expressed as percentage of that determined in the 1 nM estradiol-170-treated control group.
(§1) Cell proliferation assays: breast and lung tumor cells (between […]) were plated in 96 well plates using their respective medium with 10% FBS. For experiments using estradiol-17β, cells were rinsed with PBS and incubated with phenol redfree medium with 1% DCC-FBS for 48 hours as described before (24,25). Cells were then treated with different concentrations of SERDs ranging between 0.0001-100 μM. […] Cell counts and viability tests (Trypan blue) were done every 24 hr for 3 days. After 72 hr, proliferation was assessed with the MTS Assay CELLTITER 96® Aqueous Cell Proliferation Assay (Promega) or the Cell Proliferation ELISA, BrdU colorimetric assay (Roche). For the MTS, the absorbance of the formazan product was measured at 490 nanometer using the iMARK microplate reader from BIORAD. The BrdU ELISA assay is based on detection of BrdU incorporated into the genomic DNA of proliferating cells and an anti-BrdU antibody, the reaction product was quantified by measuring the absorbance at 370 nanometers using iMARK microplate reader from BIORAD. Cell numbers were also assessed initially by cell counts to confirm MTS/BrdU data. Experiments were done at least three times to confirm data.

[3] = test system: MCF-7/HER-2 cells; settings: MCF-7 cells with HER2-overexpression, xenografts in nude mice; cited from earlier work
[4] = test system: MAPK: ERK-1 (p44) and ERK-2 (p42); test: Estrogen-induced MAPK phosphorylation, Western blot in MCF-7 cells; format: cell-based, human; settings: MCF-7 parent cells, 1 nM estradiol (E2); antagonists pre-incubated at 1000 nM; FIG. 7A
Protocol: ERD inhibition of phosphorylation of MAPK, at both extracellular signal-regulated kinases ERK-1 (p44) and ERK-2 (p42) and downstream effects. […] Thus, we measured estrogen-induced phosphorylation of MAPK by established methods (9,15,16). Briefly, MCF-7 parental cells were estrogen deprived for 48 hrs, then treated with 1 nM estradiol-1713 in the presence of new compounds (10 nM-10 μM) to be tested for antagonist activity. After treatments, cell lysates were separated by SDS-PAGE followed by Western blot using a polyclonal antibody directed to phospho-p44/p42 MAP kinase (Thr202/Tyr204) (Cell Signaling). Immunodetection with antibody against total p44/p42 (Cell Signaling) was done as a control for gel loading. […] ERD S15 was as effective as fulvestrant in inhibiting the rapid estrogen-induced MAPK phosphorylation in breast tumor cells in vitro. […] E2 but not vehicle (CN) induced rapid phosphorylation of ERK-1 (p44) and ERK-2 (p42). This activation was prevented when cells were pre-incubated with 1000 nM ICI 182,780 (ICI; Faslodex) or 1000 nM compound S15 in the presence of estradiol (E2).

[5] = test system: MCF-7 parental cells; settings: MCF-7 parental xenografts in nude mice; cited from earlier work
[6] = test system: H2122 NSCLC cells; test: NSCLC cell proliferation in vitro (MTS assay); format: cell-based, human; settings: Homo sapiens, NCI-H2122, SERD alone, 72 hours, estrogen-depleted phenol red-free medium with 5% DCC-FBS, read-out: IC50 for inhibition of NSCLC cell proliferation, H2122
Protocol: (§2) Cell culture: Human breast and non-small cell lung cancer cells (MCF7, ZR75-1, MDAMB231, A549, H23, H1975, […]) were from ATCC. MCF7-HER2 were a kind gift of Dr. Dennis Slamon (23). Cell lines were routinely maintained in RPMI 1640 or DMEM medium with 10% fetal bovine serum (FBS) (Sigma-Aldrich) and 1% Antibiotic-Antimycotic solution 100× (Mediatech, Herndon, Va.). When indicated, for estrogen-free conditions, media was changed 48 h before experiments to phenol-red free RPMI 1640/DMEM with 1% dextran-coated, charcoal-treated (DCC)-FBS (24,25). Otherwise experiments were performed in phenol-red free RPMI 1640/DMEM medium with 5% DCC-FBS.
as §1

[7] = test system: H1975 NSCLC cells; test: NSCLC cell proliferation in vitro (MTS assay); format: cell-based, human; settings: Homo sapiens, NCI-H1975, SERD alone, 72 hours, estrogen-depleted phenol red-free medium with 5% DCC-FBS, read-out: IC50 for inhibition of NSCLC cell proliferation, H1975
Protocol: as §2, §1

[8] = test system: Rb serine-780; test: Rb serine-780 phosphorylation, Western blot in A549 cells; format: cell-based, human; settings: 24 h, 1% DCC-FBS, 1 nM E2, 1 nM androstenedione, 10 nM testosterone, 10 μM letrozole, 100 nM palbociclib, FIG. 4C
Protocol: FIG. 4C. […] Cells were treated 24 h in phenol red-free RPMI with 1% DCC-FBS with vehicle control (CON), 1 nM estradiol-17β (E2), 1 nM androstenedione (And), 10 nM testosterone (Tes), 10 μM letrozole (AI), 100 nM palbociclib (Plbo) or both Plbo+AI. After 24 hr, cell lysates subjected to Western blot with antibody to phosphoserine-780 Rb or total Rb (Cell Signaling) (20). GAPDH is used as loading control.
To investigate the antitumor efficacy of CDK 4/6 inhibitor palbociclib in NSCLC cells, we assessed the effects of palbociclib alone and in combination with the hormonal therapeutic letrozole (see FIGS. 4B and 5B). The potential mechanism of action of palbociclib and letrozole in NSCLC cells was investigated by assay of the effects of these agents alone and combined on phosphorylation of Rb serine-780

[9] = test system: cyclin D1; test: Cyclin D1 expression, Western immunoblot in A549 NSCLC cells; format: cell-based, human; settings: 24 h, 1% DCC-FBS, letrozole 10 μM, FIG. 5B
Protocol: FIG. 5B. […] Cells were treated 24 h in phenol red-free RPMI with 1% DCC-FBS. Control (Con), estradiol-17β (E2; 1 nM), androstenedione (And; 1 nM), testosterone (Tst; 10 nM), letrozole (AI; 10 μM) and palbociclib (Plbo; 1 μM) were used in this experiment. GADPH is used as a loading control (20).

Row | IC50 ([1]; Homo sapiens, A549, SERD alone, 72 hours, estrogen-depleted phenol red-free medium with 5% DCC-FBS, MTS assay, read-out: IC50 for inhibition of NSCLC cell proliferation, A549) [µM] | IC50 [2] [µM] | IC50 [6] [µM] | IC50 [7] [µM] | Structure (SMILES) | sensitivity of MCF-7/HER-2 xenografts [3] | phosphorylation of MAPK (ERK-1 p44 and ERK-2 p42) [4] | growth of parent tumors (xenografts) [5] | inhibition of NSCLC cell proliferation ([1]; A549, 72 hrs, single agents and palbociclib (10 or 100 nM)/letrozole (10 μM), FIG. 6B) | phosphorylation of Rb serine-780 [8] | cyclin D1 expression [9]
1 | 4.16 | 1.11 | 1.29 | 1.88 | C[C@]12CC[C@@H]3c4ccc(O)cc4C[C@@H](CCCCCCCCC[S+]([O-])CCCC(F)(F)C(F)(F)F)[C@H]3[C@@H]1CC[C@@H]2O (stereo partly shown) [FULVEST, fulvestrant, reference compound] | partially sensitive | prevented | suppressed | – | – | –
2 | – | – | – | – | N#Cc1ccc(C(c2ccc(C#N)cc2)n2cncn2)cc1 [letrozole] | – | – | – | dose-dependent inhibition | block | reduces cyclin D1 expression
